{
  "source": "patent US20170211073A1",
  "about": "“ANTISENSE ANTINEOPLASTIC AGENT” (priority 2014, published 2017)",
  "key": {"[1]": {"test_system": "gastric cancer cell strain AS44", "test": "Proliferation of AS44 cells", "assay_type": "cell-based"}, "[2]": {"test_system": "malignant mesothelioma cell strain H226", "test": "Proliferation of H226 cells", "assay_type": "cell-based"}, "Lewis lung cancer": {"test_system": "Lewis lung cancer", "test": "Lewis lung cancer subcutaneous tumor model", "assay_type": "in vivo", "details": "10 mg/kg BW caudal vein once a week for three weeks; days 14 and 21; vs control antisense group", "protocol": "Subcutaneous tumor models of lung cancer, Lewis lung cancer, were created. […] The tumor diameters were measured over time."}, "YB-1 [3]": {"test_system": "YB-1", "test": "YB-1 knockdown efficiency of NA, BNA and AmNA antisenses in HUVEC, HPAEC, MiaPaCa2 (real-time RT-PCR)", "assay_type": "cell-based", "details": "24 hours, vs naturally occurring type and LNA type antisense", "protocol": "YB-1 naturally occurring type nucleic acid antisense (NA), LNA/BNA type nucleic acid antisense (BNA), and AmNA type nucleic acid antisense (AmNA) were introduced into cells of the vascular endothelial cell strains (HUVEC, HPAEC) and the pancreatic cancer cell strain (MiaPaCa2-) at various concentrations. RNAs were extracted 24 hours afterward, and the YB-1 expression was evaluated by real-time RT-PCR. […] The graphs show mean±SD (n=3, *P<0.01 vs. BNA, P<0.0001 vs. NA)"}, "[4]": {"test_system": "pancreatic cancer cell strain MIA PaCa-2", "test": "Anticancer agent sensitivity enhancement, MIA PaCa-2", "assay_type": "cell-based", "details": "antisense 5 nM, 5-FU, gemcitabine", "protocol": "The #10 AmNA YB-1 antisense (5 nM) was introduced into cells of the pancreatic cancer cell strain MIA PaCa-2 (FIG. 19A) and ovarian cancer cell strain SKOV-3 (FIG. 19B) using the reagent Lipofectamine RNAiMax, and cell-killing effects of the anticancer agent observed in the presence and absence of the antisense were compared. […] The anticancer agent concentrations that provided equivalent cell-killing effects are shown in blue color (5-FU) or red color (gemcitabine)."}, "[5]": {"test_system": "pancreatic cancer cell strain SUIT-2", "test": "Radiation sensitivity enhancement, SUIT-2", "assay_type": "cell-based", "details": "antisense 10 nM", "protocol": "The #10 AmNA YB-1 antisense (10 nM) was introduced into cells of the pancreatic cancer cell strain SUIT-2 using the reagent Lipofectamine RNAiMax, and cell-killing effects of X-ray irradiation observed in the presence and absence of the antisense were compared."}, "[6]": {"test_system": "ovarian cancer cell strain SKOV3", "test": "Proliferation of SKOV3 cells", "assay_type": "cell-based"}, "YB-1 [7]": {"test_system": "YB-1", "test": "YB-1 expression in H226 by real-time RT-PCR", "assay_type": "cell-based", "details": "Lipofectamine RNAiMax", "from_the_text": "The #10 AmNA YB-1 antisense was introduced into cells of the malignant mesothelioma cell strain H226 using the reagent Lipofectamine RNAiMax, and expression of YB-1 was examined by real-time RT-PCR."}, "[8]": {"test_system": "large intestine cancer HCT116 cells", "test": "Repetitive administration into blood, HCT116 subcutaneous tumor growth", "assay_type": "in vivo, nude mice", "details": "10 mg/kg BW caudal vein once a week over three weeks, days 14 and 21", "protocol": "The tumor diameters were measured over time."}, "YB-1 [9]": {"test_system": "YB-1", "test": "YB-1 expression in AS44 by real-time RT-PCR", "assay_type": "cell-based", "details": "Lipofectamine RNAiMax", "from_the_text": "The #10 AmNA YB-1 antisense was introduced into cells of the gastric cancer cell strain AS44 using the reagent Lipofectamine RNAiMax, and expression of YB-1 was examined by real-time RT-PCR."}, "[10]": {"test_system": "ovarian cancer cell strain SKOV3", "test": "SKOV3-luciferase peritoneum inoculation model", "assay_type": "in vivo", "details": "10 mg/kg BW intraperitoneally once a week for two weeks, vs control group", "protocol": "(§1) Peritoneum inoculation models of ovarian cancer cell strain SKOV3 stably expressing luciferase were prepared. Then, after 1 week from the transplantation of the cancer cells, 10 mg/kg BW of #10 AmNA YB-1 antisense was intraperitoneally administered once a week for two weeks, and the tumor volume was evaluated over time in terms of the luciferase activity."}, "[11]": {"test_system": "gastric cancer cell strain AS44-luc", "test": "AS44-luc peritoneum inoculation model, survival", "assay_type": "in vivo", "details": "10 mg/kg BW intraperitoneally once a week for two weeks, vs control group", "protocol": "as §1, with “gastric” for “ovarian”, “AS44-luc” for “SKOV3”"}, "[12]": {"test_system": "malignant mesothelioma cell strain H226", "test": "H226 subcutaneous tumor model", "assay_type": "in vivo", "details": "10 mg/kg BW caudal vein once a week for two weeks, vs control group", "protocol": "Subcutaneous tumor models of the malignant mesothelioma cell strain H226 were prepared. […] A photograph of the subcutaneous tumor after the treatment is shown in the left panel."}, "[13]": {"test_system": "gemcitabine-resistant human pancreatic cancer SUIT2 cells", "test": "Antitumor effect of YB-1 ASO AmNA into blood, gemcitabine-resistant SUIT2 subcutaneous tumor", "assay_type": "in vivo, nude mice", "protocol": "(§2) Antitumor effect of administration into blood of YB-1 ASO of AmNA type, of which high safety was confirmed in Example 9 compared with ASO constituted with the conventional BNA, was examined. The human large intestine cancer cells HCT116 were subcutaneously transplanted to the thighs of nude mice. After subcutaneous tumors having a diameter of 6 to 7 mm (average tumor volume, 78 vs. 72 mm^3) were formed, 200 μg/200 μL of YB-1 ASO AmNA was administered (once every two weeks, total 2 times) into the blood from the caudal veins. The diameters of the tumors were measured over time, and tumor volumes calculated in accordance with a calculation formula, (Major axis)×(Minor axis)/2, were compared with those obtained with the control antisense group. The subcutaneous tumors were collected after one week from the second administration (day 28), and weights thereof were compared. In the YB-1 ASO AmNA group, both the tumor diameter and tumor weight were suppressed to about ⅕ of those observed with the control antisense group (FIG. 10, *P<0.05).\nA human pancreatic cancer SUIT2 cell strain was prepared by culturing pancreatic cancer cells resistant to the anticancer agent, gemcitabine, for a long period of time in a medium containing gemcitabine at a low concentration (IC50 value, 100 nM for the resistant strain vs. 5 nM for the parent strain). […]"}, "[14]": {"test_system": "human large intestine cancer cells HCT116", "test": "Antitumor effect of YB-1 ASO AmNA into blood, HCT116 subcutaneous tumor", "assay_type": "in vivo, nude mice", "protocol": "as §2"}, "[15]": {"test": "General blood and biochemical examinations, mice with Suit2-GR sc tumor", "details": "SUIT2-GR and HCT116 models; 10 mg/kg BW once a week over three weeks", "experimental": "Subcutaneous tumor models were created by subcutaneously transplanting gemcitabine-resistant pancreatic cancer SUIT2-GR cells and large intestine cancer HCT116 cells to the thighs of nude mice. After tumors having a volume of 50 mm^3 were formed, 10 mg/kg BW of #10AmNA YB-1 antisense was administered from the caudal veins once a week over three weeks. The tumor diameters were measured over time."}},
  "data": [
    {"substance": "TCTcctgcaccCTGg (TCTCCTGCACCCTGG; chemistry not fully specified) [#10AmNA]", "values": [
      {"measurement": "suppression of proliferation", "setting": "[1]", "value": "suppression of proliferation"},
      {"measurement": "suppression of proliferation", "setting": "[2]", "value": "suppression of proliferation"},
      {"measurement": "increase of the tumor", "setting": "Lewis lung cancer", "value": "significantly suppressed"},
      {"measurement": "YB-1 knockdown efficiency", "setting": "YB-1 [3]", "value": "significantly higher"},
      {"measurement": "cell-killing effects of the anticancer agent in presence of the antisense", "setting": "[4]", "value": "Enhancement of the cell-killing effect"},
      {"measurement": "cell-killing effects of X-ray irradiation in presence of the antisense", "setting": "[5]", "value": "Enhancement of the cell-killing effect"},
      {"measurement": "suppression of proliferation", "setting": "[6]", "value": "suppression of proliferation"},
      {"measurement": "suppression of YB-1 expression", "setting": "YB-1 [7]", "value": "Concentration-dependent suppression"},
      {"measurement": "subcutaneous tumor-suppressing effect", "setting": "[8]", "value": "significant subcutaneous tumor-suppressing effect"},
      {"measurement": "suppression of YB-1 expression", "setting": "YB-1 [9]", "value": "Concentration-dependent suppression"},
      {"measurement": "tumor volume (luciferase activity)", "setting": "[10]", "value": "significantly suppressed"},
      {"measurement": "survival rate (Kaplan-Meier)", "setting": "[11]", "value": "significantly increased"},
      {"measurement": "increase of the tumor in terms of tumor weight", "setting": "[12]", "value": "significantly suppressed"},
      {"measurement": "tumor weight as fraction of control antisense group", "setting": "[13]", "value": "about ⅓"},
      {"measurement": "tumor diameter as fraction of control antisense group", "setting": "[13]; 200 μg/200 μL into blood, once every two weeks, total 2 times", "value": "about ⅓"},
      {"measurement": "tumor diameter as fraction of control antisense group", "setting": "[14]; 200 μg/200 μL caudal vein, once every two weeks, total 2 times", "value": "about ⅕"},
      {"measurement": "tumor weight as fraction of control antisense group", "setting": "[14]; day 28", "value": "about ⅕"},
      {"measurement": "safety with the every week administration protocol", "setting": "[15]", "value": "any problem was not observed"}
    ]}
  ]
}
